The test system of one data set is Influenza virus B/Lee/40. Put plainly: Cytopathic effect reduction, influenza B Lee in MDCK cells, MTT. The format is cell-based. Conditions: for Selectivity index FluB Lee: CC50/EC50; for EC50: MDCK, 72 h, read-out: Anti-Flu activity EC50 FluB Lee.
The subject of a further data set is MERS-CoV. As to the kind of experiment: microbe, parasite or virus in culture. The note with it: Middle East respiratory syndrome-related coronavirus, Huh-7, 72 h, read-out: EC50 MERS-CoV. It counts as cell-based, MERS virus (MERS-CoV/KOR/KNIH/002_05_2015).
For a further data set, the system named is DENV. As to the kind of experiment: Reduction in viral infection, dengue virus in Vero cells, immunofluorescence (4G2 antibody). Conditions: 72 h, read-out: EC50 DENV. It counts as cell-based, Dengue virus New Guinea C (NGC).
The next data set deals with ZIKV. Put plainly: Reduction in viral infection, zika virus in Vero cells, immunofluorescence (4G2 antibody). The format is cell-based, Zikavirus (MR766). Conditions: 72 h, day 3 after infection.
In another data set the test system is CHIKV. Put plainly: Cytopathic effect reduction, Chikungunya virus in Vero cells, MTT. It counts as cell-based. The note with it: 72 h, read-out: EC50 CHIKV. (In general: Damage to the host cells serves as the signal in cytopathic effect assays.)
Data set [1] in a line: in vitro. The note with it: dog.
Data set [2] is described as follows: in vitro. Conditions: human.
Data set [3] is described as follows: Cytotoxicity (CC50) in Vero cells. The note with it: African green monkey.
The subject of a further data set is hCoV (229E). Put plainly: microbe, parasite or virus in culture. It counts as cell-based, Human coronavirus hCoV 229E. Conditions: MRC5, 72 h, read-out: EC50 hCoV (229E).
The next data set relates to hCoV (OC43). As to the kind of experiment: Cytopathic effect reduction, hCoV OC43 in MRC-5 cells, MTT. It counts as cell-based, Human coronavirus hCoV OC43. Conditions: Betacoronavirus 1, OC43, MRC5, 72 h, read-out: EC50 hCoV (OC43).
Another data set has as its system FIPV. As to the kind of experiment: Cytopathic effect reduction, FIPV in CRFK cells, MTT. The format is cell-based, feline infectious peritonitis virus (FIPV). The note with it: read-out: EC50 FIPV.
A short description of data set [4]: in vitro. The note with it: human. This is another data set of the same source.
The nature of data set [5]: in vitro. The note with it: cat.
Where [6] appears, read: CC50 (CHIKV), Vero cells, CHIKV test, MTT.
[7] abbreviates: CC50 (DENV), Vero cells, DENV test.
[8] abbreviates: MRC-5 cells, day 3 after infection.
Setting [9] is: Alphacoronavirus 1, 72 h, CRFK cells, day 3 after infection.
Where [10] appears, read: read-out: CC50 (hCoV OC43), MRC-5 cells, day 3.

Broadly, the EC50 is the concentration giving half of the maximal effect.

Where two headings read alike, the source gives them in different places. Bounds are passed on as bounds.

On to `O=C(Nc1ccn(C2O[C@H](CO)[C@@H](O)[C@H]2F)c(=O)n1)c1cccc(-c2ccccc2)n1` (stereo in doubt) [Example 27, N-(1-((2S,3R,4R,5R)-3-fluoro-4-hydroxy-5-(hydroxymethyl)tetrahydrofuran-2-yl)-2-oxo-1,2-dihydropyrimidin-4-yl)-6-phenylpicolinamide], for which, in the data set on Influenza virus B/Lee/40, the “Selectivity index FluB Lee” value is reported as above 6.4. In addition, the EC50 in the data set with Influenza virus B/Lee/40 is 15.6 µM; in the data set with MERS-CoV it was 20.9 µM; in the data set with DENV it was 13.7 µM; in the data set on ZIKV, above 100 µM; in the data set with CHIKV, above 100 µM. In addition, the CC50 at 3 days in “in vitro [1]” is above 100 µM; in “in vitro [2]”, 56.6 µM; in [3] (setting [6]) it was above 100 µM; in [3] (setting [7]), 64.4 µM; in data set [3] (CC50, Vero cells, ZIKV test) it was above 100 µM.
Consider `Cc1nccc(C(=O)Nc2ccn(C3O[C@H](CO)[C@@H](O)[C@H]3F)c(=O)n2)n1` (stereo in doubt) [Example 29, N-(1-((2S,3R,4R,5R)-3-fluoro-4-hydroxy-5-(hydroxymethyl)tetrahydrofuran-2-yl)-2-oxo-1,2-dihydropyrimidin-4-yl)-2-methylpyrimidin-4-carboxamide], for which the “Selectivity index FluB Lee” value with Influenza virus B/Lee/40 is above 17.9. In addition, the EC50 with Influenza virus B/Lee/40 is 5.6 µM; with MERS-CoV it was above 100 µM; with DENV, above 100 µM; in the data set on ZIKV it was above 100 µM; with CHIKV, 24 µM. Besides, the CC50 at 3 days in “in vitro [1]” was above 100 µM; in the data set “in vitro [2]” it was above 100 µM; in data set [3] (setting [6]) it was above 100 µM; in [3] (setting [7]), above 100 µM; in data set [3] (CC50, Vero cells, ZIKV test) it was above 100 µM.
On to `Nc1ccc(C(=O)Nc2ccn(C3O[C@H](CO)[C@@H](O)[C@H]3F)c(=O)n2)nc1` (stereo in doubt) [Example 31, 5-Amino-N-(1-((2S,3R,4R,5R)-3-fluoro-4-hydroxy-5-(hydroxymethyl)tetrahydrofuran-2-yl)-2-oxo-1,2-dihydropyrimidin-4-yl)picolinamide], for which the EC50 is above 100 µM in the data set on MERS-CoV, above 100 µM with DENV and 57.6 µM in the data set with ZIKV. Further, the CC50 at 3 days is above 100 µM in the data set “in vitro [2]”; above 100 µM in [3] (setting [7]); above 100 µM in data set [3] (CC50, Vero cells, ZIKV test).
For the compound `O=C(Nc1ccn([C@@H]2O[C@H](CO)[C@@H](O)C2(F)F)c(=O)n1)c1cccnc1` [Example 1, N-(1-((2R,4R,5R)-3,3-difluoro-4-hydroxy-5-(hydroxymethyl)tetrahydrofuran-2-yl)-2-oxo-1,2-dihydropyrimidin-4-yl)nicotinamide], in the data set on Influenza virus B/Lee/40, the “Selectivity index FluB Lee” value is given as above 34.9. Besides, the EC50 with Influenza virus B/Lee/40 turned out to be 8.6 µM; in the data set on MERS-CoV it was 10.4 µM; in the data set with hCoV (229E), 4.6 µM; in the data set with hCoV (OC43), 76 µM; in the data set on FIPV (Alphacoronavirus 1, CRFK, 72 h), 25 µM; in the data set on DENV, 3.42 µM. Besides, the results for the CC50 in the data set on MRC-5 cells (human), in the data set “in vitro [4]” and in “in vitro [5]” were above 100 µM, above 100 µM and 56 µM, respectively. Further, the CC50 at 3 days (in the data set “in vitro [1]”; in “in vitro [2]”; in data set [3] (setting [7])) was above 100 µM in each case.
In the case of `O=C(Nc1ccn([C@@H]2O[C@H](CO)[C@@H](O)C2(F)F)c(=O)n1)c1ccccn1` [Example 2, N-(1-((2R,4R,5R)-3,3-difluoro-4-hydroxy-5-(hydroxymethyl)tetrahydrofuran-2-yl)-2-oxo-1,2-dihydropyrimidin-4-yl)picolinamide], the “Selectivity index FluB Lee” value in the data set with Influenza virus B/Lee/40 is given as above 136.4. In addition, the half-maximal effective concentration (EC50) in the data set with Influenza virus B/Lee/40 was 2.2 µM; in the data set on MERS-CoV, 1.8 µM; in the data set with hCoV (229E) it was 0.8 µM; in the data set on hCoV (OC43) it was above 100 µM; in the data set with FIPV (Alphacoronavirus 1, CRFK, 72 h) it was 9.1 µM; with DENV, 0.72 µM. The CC50 in the data set on MRC-5 cells (human), in the data set “in vitro [4]” and in “in vitro [5]” was above 100 µM each time. Besides, the CC50 at 3 days (in “in vitro [1]”; in the data set “in vitro [2]”; in data set [3] (setting [7])) was above 100 µM each time.
As to `Cc1ccc(C(=O)Nc2ccn([C@@H]3O[C@H](CO)[C@@H](O)C3(F)F)c(=O)n2)cn1` [Example 4, N-(1-((2R,4R,5R)-3,3-difluoro-4-hydroxy-5-(hydroxymethyl)tetrahydrofuran-2-yl)-2-oxo-1,2-dihydropyrimidin-4-yl)-6-methylnicotinamide], the “Selectivity index FluB Lee” value with Influenza virus B/Lee/40 is recorded as above 157.9. Moreover, the EC50 with Influenza virus B/Lee/40 is 1.9 µM; with MERS-CoV, 2.2 µM; with hCoV (229E) it was 11.1 µM; in the data set with hCoV (OC43) it was above 100 µM; in the data set on FIPV (Alphacoronavirus 1, CRFK, 72 h) it was 8.1 µM; in the data set with DENV it was 0.71 µM. For the same compound, the CC50 in the data set with MRC-5 cells (human), in “in vitro [4]” and in “in vitro [5]” was above 100 µM each time. The CC50 at 3 days (in “in vitro [1]”; in “in vitro [2]”; in [3] (setting [7])) was above 100 µM throughout.
As to `O=C(Nc1ccn([C@@H]2O[C@H](CO)[C@@H](O)C2(F)F)c(=O)n1)c1cccnn1` [Example 5, N-(1-((2R,4R,5R)-3,3-difluoro-4-hydroxy-5-(hydroxymethyl)tetrahydrofuran-2-yl)-2-oxo-1,2-dihydropyrimidin-4-yl)pyridazine-3-carboxamide], in the data set on Influenza virus B/Lee/40, the “Selectivity index FluB Lee” value is listed as above 142.9. The EC50 was determined as 2.1 µM in the data set with Influenza virus B/Lee/40; 1.4 µM in the data set with MERS-CoV; 8.9 µM with hCoV (229E); 17.2 µM in the data set on hCoV (OC43); 8.5 µM with FIPV (Alphacoronavirus 1, CRFK, 72 h); 0.94 µM in the data set with DENV. Besides, the CC50 in the data set with MRC-5 cells (human), in the data set “in vitro [4]” and in the data set “in vitro [5]” was above 100 µM in each case. The CC50 at 3 days (in the data set “in vitro [1]”; in the data set “in vitro [2]”; in data set [3] (setting [7])) was above 100 µM in each case.
Regarding `O=C1CCCN1c1ccn([C@@H]2O[C@H](CO)[C@@H](O)C2(F)F)c(=O)n1` [Example 7], the “Selectivity index FluB Lee” value in the data set with Influenza virus B/Lee/40 is recorded as above 10.6. In addition, the concentration giving a half-maximal response (EC50) was 9.4 µM with Influenza virus B/Lee/40; 17.6 µM in the data set on hCoV (229E) (setting [8]); above 100 µM in the data set on hCoV (OC43) (setting [8]); 77 µM with FIPV (setting [9]); 15.7 µM with DENV. In addition, the CC50 in the data set on MRC-5 cells (setting [10]), in the data set “in vitro [4]” and in the data set “in vitro [5]” was above 100 µM throughout. The CC50 at 3 days (in “in vitro [1]”; in [3] (setting [7])) was above 100 µM each time.
Turning to `O=C(Nc1ccn([C@@H]2O[C@H](CO)[C@@H](O)C2(F)F)c(=O)n1)c1ccc(F)cn1` [Example 9, N-(1-((2R,4R,5R)-3,3-difluoro-4-hydroxy-5-(hydroxymethyl)tetrahydrofuran-2-yl)-2-oxo-1,2-dihydropyrimidin-4-yl)-5-fluoropicolinamide], the “Selectivity index FluB Lee” value in the data set with Influenza virus B/Lee/40 was above 16.4. The EC50 in the data set on Influenza virus B/Lee/40 is 6.1 µM; in the data set with hCoV (229E) (setting [8]), 2.4 µM; with hCoV (OC43) (setting [8]), above 100 µM; in the data set on FIPV (setting [9]), 18 µM; with DENV, 1.34 µM. Further, the CC50 with MRC-5 cells (setting [10]), in “in vitro [4]” and in “in vitro [5]” was above 100 µM each time. The CC50 at 3 days (in the data set “in vitro [1]”; in data set [3] (setting [7])) was above 100 µM in each case.
With `Cc1ccc(C(=O)Nc2ccn([C@@H]3O[C@H](CO)[C@@H](O)C3(F)F)c(=O)n2)nc1` [Example 10, N-(1-((2R,4R,5R)-3,3-difluoro-4-hydroxy-5-(hydroxymethyl)tetrahydrofuran-2-yl)-2-oxo-1,2-dihydropyrimidin-4-yl)-5-methylpicolinamide], in the data set with Influenza virus B/Lee/40, the “Selectivity index FluB Lee” value is listed as above 10.2. The EC50 is 9.8 µM in the data set with Influenza virus B/Lee/40; 7.4 µM in the data set on hCoV (229E) (setting [8]); above 100 µM in the data set with hCoV (OC43) (setting [8]); 21 µM in the data set on FIPV (setting [9]); 2.53 µM in the data set on DENV. For the same compound, the CC50 with MRC-5 cells (setting [10]) is above 100 µM; in “in vitro [4]”, above 100 µM; in “in vitro [5]” it was 92 µM. Also, the CC50 at 3 days (in the data set “in vitro [1]”; in data set [3] (setting [7])) was above 100 µM each time.
For `Cc1cccc(C(=O)Nc2ccn([C@@H]3O[C@H](CO)[C@@H](O)C3(F)F)c(=O)n2)n1` [Example 13, N-(1-((2R,4R,5R)-3,3-difluoro-4-hydroxy-5-(hydroxymethyl)tetrahydrofuran-2-yl)-2-oxo-1,2-dihydropyrimidin-4-yl)-6-methylpicolinamide], the “Selectivity index FluB Lee” value in the data set with Influenza virus B/Lee/40 is recorded as above 12.8. Moreover, the EC50 was 7.8 µM in the data set with Influenza virus B/Lee/40, 5.8 µM in the data set on hCoV (229E) (setting [8]) and 1.98 µM in the data set on DENV. In addition, the CC50 at 3 days (in the data set “in vitro [1]”; in data set [3] (setting [7])) was above 100 µM in each case. This compound also had a CC50 in the data set “in vitro [4]” above 100 µM.

The values above are taken from patent US11655268B2, “Nucleoside or nucleotide derivatives, and uses thereof” (ST Pharm Co., Ltd., priority 2018, dated 2023).
